Data published in US20090068290A1, “BIFEPRUNOX DOSES FOR TREATING SCHIZOPHRENIA” (priority 2006, published 2009).

Legend:
[1] = Body weight, Clinical Study Three
Description: To assess the safety and tolerability of bifeprunox using physical examination, weight, waist circumference, vital signs (pulse rate and systolic/diastolic blood pressure [BP], and oral temperature), 12-lead electrocardiogram (ECG), clinical laboratory assessments (hematology, biochemistry including fasting insulin level, fasting glucose, fasting lipid profile, urinalysis, special laboratory assessments for prolactin, IGF-1, IGFBP-3, and thyroid function), need for anticholinergic treatment during double-blind treatment period, concomitant medication use, adverse event (AE) monitoring, and assessments of abnormal movement including the Simpson-Angus Scale (SAS), Barnes Akathisia Scale (BAS), and Abnormal Involuntary Movement Scale (AIMS).

[2] = test system: adult subjects with schizophrenia; test: BPRS total score, Clinical Study Two; format: in vivo, human; conditions: LOCF; for Change from Baseline in BPRS Total Score, Mean (SD) / Change from Baseline in BPRS Total Score, Median: Risperidone 6 mg, ITT population
Description: Rating scale assessments were performed weekly, except for week 5, to measure the change from baseline to endpoint of the PANSS total score. Other assessments included: PANSS positive symptom subscale score, PANSS negative symptom subscale score, PANSS general pschopathology subscale score, BPRS total score, BPRS psychosis score, the CGI-S score, the CGI-I score, responder rates based on the PANSS total score, and the Calgary Depression Scale for Schizophrenia (CDSS). […]
Subjects who completed this study had the option to continue in the long-term. […] Blood samples were also obtained at Screening/Baseline, Week 3, and Week 6 for clinical laboratory assessments.

[3] = test system: adult subjects with schizophrenia; test: PANSS negative subscale score, Clinical Study One; format: in vivo, human; conditions: Risperidone 6 mg, ITT
Description: (§1) There were five treatment groups in this study. […] Study medication was administered once daily. After Baseline measurements were performed, the titration phase was begun. Bifeprunox treated subjects were titrated up to 5 mg, 10 mg or 20 mg according to a standardized titration schedule (Day 1: 0.125 mg, Day 2: 0.25 mg, Day 3: 0.5 mg, Day 4: 1.0 mg, Day 5: 2.0 mg, Day 6: 5.0 mg, Day 7: 10.0 mg, Day 8: 20 mg). When the assigned dose was reached, subjects were maintained at that dose for the remainder of the six-week treatment period.
The change in the Positive and Negative Symptom Scale (PANSS) total score, from baseline to endpoint, was the primary outcome measure. Secondary efficacy measures included: PANSS positive, PANSS negative, PANSS general psychopathology (GPP) score, PANSS-derived Brief Psychiatric Rating Scale (BPRS) score, Clinical Global Impressions-Severity of Illness (CGI-S), CGI-Improvement (CGI-I) scores, and responder rates. Safety and tolerability evaluations included extrapyramidal symptoms (EPS), weight gain, lipid profile, and serum prolactin.

[4] = test system: adult subjects with schizophrenia; test: BPRS psychosis cluster score, Clinical Study One; format: in vivo, human; conditions: Risperidone 6 mg, ITT population
Description: as §1

[5] = test system: adult subjects with schizophrenia; test: SAS, BAS and AIMS movement scales, Clinical Study Two; format: in vivo, human; conditions: Risperidone 6 mg
Description: Pharmacokinetic (PK) data of bifeprunox in schizophrenic subjects were also assessed and are presented in a separate report (combined with data from study S1543003).
The SAS is used to measure Parkinsonian-type symptoms in patients exposed to antipsychotics. The scale consists of 10 items, each rated on a 5-point scale ranging from 0 (complete absence of the condition) to 4 (presence of the condition in extreme form). The SAS total score is defined as the sum of all item scores, and the range is 0 to 40. A SAS total score of up to 3 is considered normal.
The BAS is used to rate observable, restless movements of drug-induced akathisia as well as the subjective awareness of restlessness and any distress associated with the akathisia. The scale consists of 3 items that is rated from 0 (no evidence of akathisia) to 3 (severe akathisia). The BAS total score is defined as the sum of the these three BAS item scores and ranges from is 0 to 9. In addition, a global clinical assessment of akathisia is rated from 0 (no evidence of akathisia) to 5 (severe akathisia).
The AIMS, designed to record the occurrence of dyskinetic movements, consists of 12 items. Items 1 to 7 measure specific involuntary movements on a scale from 0 (none) to 4 (severe). Items 8 to 10 measure global assessment of abnormal movement on a scale from 0 (no awareness) to 4 (aware, severe distress). Items 11 and 12 are questions regarding the dental condition of the patient, with yes/no answers. The total score is calculated by summing AIMS items 1 through 10 and ranges from 0 to 40; the non-global total score is calculated by summing items 1 through 7.

SMILES: Cc1cc2c(s1)Nc1ccccc1N=C2N1CCN(C)CC1 [Olanzapine, olanzapine, reference compound]
- Weight, Baseline, Max ([1]; Olanzapine 15 mg): 300 lbs
- Weight, Baseline, Mean (SD) ([1]; Olanzapine 15 mg): 175.2 (52.7) lbs
- Weight, Baseline, Min ([1]; Olanzapine 15 mg): 68 lbs
- Weight, Change from Baseline at Endpoint, Max ([1]; Olanzapine 15 mg): 31 lbs
- Weight, Change from Baseline at Endpoint, Mean (SD) ([1]; Olanzapine 15 mg): 5.2 (6.9) lbs
- Weight, Change from Baseline at Endpoint, Median ([1]; Olanzapine 15 mg): 4 lbs
- Weight, Change from Baseline at Endpoint, Min ([1]; Olanzapine 15 mg): −7 lbs
- Weight, Change from Baseline at Week 6, Max ([1]; Olanzapine 15 mg): 31 lbs
- Weight, Change from Baseline at Week 6, Mean (SD) ([1]; Olanzapine 15 mg): 5.9 (7.3) lbs
- Weight, Change from Baseline at Week 6, Median ([1]; Olanzapine 15 mg): 5 lbs
- Weight, Change from Baseline at Week 6, Min ([1]; Olanzapine 15 mg): −7 lbs
- mean body weight (in words) ([1]; olanzapine 15 mg, 6 weeks): an increase in weight

SMILES: Cc1nc2n(c(=O)c1CCN1CCC(c3noc4cc(F)ccc34)CC1)CCCC2 [Risperidone, risperidone, reference compound]
- Change from Baseline in BPRS Total Score, Mean (SD) ([2]; Week 1): −5.5 (6.3)
- Change from Baseline in BPRS Total Score, Median ([2]; Week 1): −5
- Change from Baseline in BPRS Total Score, Mean (SD) ([2]; Week 2): −9.1 (8.5)
- Change from Baseline in BPRS Total Score, Median ([2]; Week 2): −9
- Change from Baseline in BPRS Total Score, Mean (SD) ([2]; Week 3): −10.7 (9.4)
- Change from Baseline in BPRS Total Score, Median ([2]; Week 3): −11
- Change from Baseline in BPRS Total Score, Median ([2]; Week 4): −13
- Change from Baseline in BPRS Total Score, Mean (SD) ([2]; Week 6/Endpoint): −12.2 (11.7)
- Change from Baseline in BPRS Total Score, Median ([2]; Week 6/Endpoint): −13
- mean change (SD) from Baseline to Endpoint in BPRS total score ([2]; risperidone 6 mg, ITT): −12.2 (11.7)
- Change from Baseline in PANSS Negative Subscale Score, Mean (S.D.) ([3]; Endpoint LOCF): −3.6 (4.6)
- Change from Baseline in PANSS Negative Subscale Score, Median ([3]; Endpoint LOCF): −3
- Change from Baseline in PANSS Negative Subscale Score, Mean (S.D.) ([3]; Week 1, LOCF): −2.1 (3.5)
- Change from Baseline in PANSS Negative Subscale Score, Median ([3]; Week 1, LOCF): −1
- Change from Baseline in PANSS Negative Subscale Score, Mean (S.D.) ([3]; Week 2, LOCF): −3.0 (4.2)
- Change from Baseline in PANSS Negative Subscale Score, Median ([3]; Week 2, LOCF): −3
- Change from Baseline in PANSS Negative Subscale Score, Mean (S.D.) ([3]; Week 3, LOCF): −3.5 (4.2)
- Change from Baseline in PANSS Negative Subscale Score, Median ([3]; Week 3, LOCF): −3
- Change from Baseline in PANSS Negative Subscale Score, Mean (S.D.) ([3]; Week 4, LOCF): −3.2 (4.3)
- Change from Baseline in PANSS Negative Subscale Score, Median ([3]; Week 4, LOCF): −3
- Change from Baseline in BPRS Psychosis Cluster Score, Mean (S.D.) ([4]; Endpoint LOCF): −4.1 (3.5)
- Change from Baseline in BPRS Psychosis Cluster Score, Median ([4]; Endpoint LOCF): −4
- Change from Baseline in BPRS Psychosis Cluster Score, Mean (S.D.) ([4]; Week 1, LOCF): −2.2 (2.7)
- Change from Baseline in BPRS Psychosis Cluster Score, Median ([4]; Week 1, LOCF): −2
- Change from Baseline in BPRS Psychosis Cluster Score, Mean S.D. ([4]; Week 2, LOCF): −3.6 (3.2)
- Change from Baseline in BPRS Psychosis Cluster Score, Median ([4]; Week 2, LOCF): −3
- Change from Baseline in BPRS Psychosis Cluster Score, Mean (S.D.) ([4]; Week 3, LOCF): −4.1 (3.4)
- Change from Baseline in BPRS Psychosis Cluster Score, Median ([4]; Week 3, LOCF): −4
- Change from Baseline in BPRS Psychosis Cluster Score, Mean (S.D.) ([4]; Week 4, LOCF): −3.9 (3.3)
- Change from Baseline in BPRS Psychosis Cluster Score, Median ([4]; Week 4, LOCF): −4
- subjects with abnormal SAS scores at Endpoint [5]: 14%
